Results taken from patent US8618082B2, “Lupeol anti-tumor agent and uses thereof” (Wisconsin Alumni Research Foundation, priority 2004, dated 2013).
Entries after “also recorded” stand apart in the source; their conditions may differ.

Legend:
[1] = test system: epidermal ODC protein; assay: TPA-induced epidermal ODC protein expression (western blot); type: in vivo, mouse
Experimental: (§1) FIG. 4. Inhibitory effect of Lupeol on TPA-induced epidermal ODC, iNOS and COX-2 protein expression in CD-1 mice: At different times after treatment, the animals were sacrificed, epidermal protein lysate was prepared, and ODC and COX-2 protein expression were determined. Equal loading of protein was confirmed by stripping the immunoblot and reprobing it for β-actin. The immunoblots shown here are representative of three independent experiments with similar results. The values above each lane indicate relative density of the band normalized to β-actin.
The animals were shaved on the dorsal side of the skin, divided into four groups and treated topically on the shaved area with either 0.4 ml vehicle (acetone), or TPA (3.2 nmol/0.4 ml acetone/animal, v/v), or Lupeol (1 or 2 mg/0.2 ml acetone/animal, w/v) followed 30 min later with TPA (3.2 nmol/0.2 ml acetone/animal). Animals were sacrificed at different times point i.e. 6, 12, 24 and 48 h post TPA treatment. […]
(§2) Epidermis from the whole skin was separated as described earlier (Katiyar et al., 1999) and was homogenized in ice-cold lysis buffer [50 mM Tris-HCl, 150 mM NaCl, 1 mM EGTA, 1 mM EDTA, 20 mM NaF, 100 mM Na3VO4, 0.5% NP-40, 1% Triton X-100, 1 mM PMSF (pH 7.4)] with freshly added protease inhibitor cocktail, Protease Inhibitor Cocktail Set III (Calbiochem, La Jolla, Calif., USA). […] The protein content in the lysates was measured by DC BioRad assay (BioRad Laboratories, Hercules, Calif.) as per the manufacturer's protocol.
(§3) For western blot analysis, 40 μg of the protein was resolved over 8-12% polyacrylamide gels and transferred to a nitrocellulose membrane. […] This was followed by incubation with anti-mouse or anti-rabbit secondary antibody horse-radish peroxidase (Amersham Life Sciences, Inc., USA) for 1 h and then washed several times and detected by chemiluminescence ECL kit, (Amersham Life Sciences, Inc., USA) and autoradiography using XAR-5 film obtained from Eastman Kodak Co. (Rochester, N.Y., USA). […]

[2] = test system: AsPC-1 cells; assay: Apoptosis in AsPC-1 cells by fluorescence microscopy and flow cytometry; type: cell-based; conditions: flow cytometry and confocal microscopy
Text: FIG. 21 depicts Lupeol induced apoptosis in AsPC-1 cells as assessed by fluorescence microscopy (Upper Panel) and by flow cytometry (Bottom Panel). Upper panel of FIG. 21 contains the representative micrographs of AsPC-1 cells undergoing apoptosis induced by treatment with Lupeol as assessed by fluorescence microscopy (Upper panel).

[3] = test system: epidermal COX-2 protein; assay: TPA-induced epidermal COX-2 protein expression (western blot); type: in vivo, mouse
Experimental: as §1
The animals were shaved on the dorsal side of the skin, divided into four groups and treated topically on the shaved area with either 0.4 ml vehicle (acetone), or TPA (3.2 nmol/0.4 ml acetone/animal, v/v), or Lupeol (1 or 2 mg/0.2 ml acetone/animal, w/v) followed 30 min later with TPA (3.2 nmol/0.2 ml acetone/animal). Animals were sacrificed at different times point i.e. 6, 12, 24 and 48 h post TPA treatment. The epidermis was separated from the whole skin and homogenized in 0.1 M Tris-HCl buffer (pH 7.2) using a Polytron tissue homogenizer (Brinkmann Instruments, Westbury, N.Y., USA) at 100,000×g supernatant, and microsomal fractions were prepared as described earlier (Katiyar and Mukhtar, 1997). The sample of 6 h treatment group was used to assess the ODC activity as this time point has previously been shown for optimal induction of the enzyme (Katiyar er al., 1996).
as §2, with “USA). The homogenate was then centrifuged at 14,000×g for 25 minutes at 4° C. and the supernatant (total cell lysate) was collected, aliquoted and stored at −80° C. For the preparation of nuclear lysate, 0.2 g of the epidermis was homogenized in 1 ml of ice-cold phosphate-buffered saline (pH 7.6) and centrifuged at 12,000×g for 5 min at 4° C.” for “USA).”
as §3

[4] = test system: LNCaP cells; assay: LNCaP viability with anti-Fas mAb alone or combined with Lupeol, MTT assay; type: cell-based, human
Experimental: FIG. 15 depicts effect of Lupeol treatment in combination with anti-Fas mAb on the growth of LNCaP cells and on the expression of Fas receptor in LNCaP and PrEC cells: (a) Cells were treated with specified concentrations anti-Fas mAb for 48 h and cell viability was determined by MTT assay. The values are represented as the percent viable cells where vehicle-treated cells were regarded as 100% viable. Data represents mean value of percent viable cells±S.E of three independent experiments. V represents control and vehicle (DMSO) treated cells respectively. (b). Cells were treated with specified concentrations of Lupeol alone, anti-Fas mAb or with combination (Lupeol+anti-Fas mAb) for 48 h and cell viability was determined by MTT assay. “a” and “b” represent pre-treatment and co-treatment of cells with anti-Fas mAb respectively. The values are represented as the percent viable cells where vehicle-treated cells were regarded as 100% viable. Data represents mean value of percent viable cells±S.E of three independent experiments.

[5] = test system: PARP, acinus, Bcl2, Bax, Caspase 7 in LNCaP cells; assay: PARP cleavage and apoptosis protein expression in LNCaP cells (western blot); type: cell-based, human
Experimental: FIG. 12 depicts effect of Lupeol treatment on PARP cleavage and on protein expression of acinus, in LNCaP cells. Cells were treated with specified concentrations of Lupeol for 48 h, harvested and total cell lysates were prepared. PARP cleavage and the expression of acinus, were determined by western blot analysis. Equal loading was confirmed by stripping immunoblots and reprobing them for β-actin. The immunoblots shown here are representative of three independent experiments with similar results.

Compound: C=C(C)[C@@H]1CC[C@]2(C)CC[C@]3(C)[C@H](CC[C@@H]4[C@@]5(C)CC[C@H](O)C(C)(C)[C@@H]5CC[C@]43C)[C@@H]12 [Lupeol, Lup-20(29)-en-3β-ol]
- epidermal ODC protein expression after Lupeol alone ([1]; Lupeol alone up to 2 mg/animal): without any effect on enzyme level
- inhibition of TPA-caused induction of epidermal ODC protein expression (densitometry) ([1]; Lupeol-pretreated animals, 1 or 2 mg, all time points): 50-70%
- induction of apoptosis in ASPC-1 cells [2]: inducing apoptosis
- inhibition in TPA-caused increased epidermal COX-2 protein expression ([3]; Lupeol 1 mg/animal): 40%
- TPA-induced COX-2 protein level ([3]; Lupeol 2 mg/animal): restored the level of TPA-induced COX-2 protein almost to its basal level
- epidermal COX-2 protein expression after Lupeol alone ([3]; Lupeol alone 2 mg): did not produce any change
- combination effect of Lupeol with Fas-agonist (anti-Fas mAb) on cell death ([4]; LNCaP cells, vs additive effect of the two alone): synergistic effect; also recorded: significant synergistic manner
- cell death of LNCaP cells ([4]; anti-Fas mAb pretreated LNCaP cells treated with Lupeol (30 μg)): 95-98%
- Bcl2, Bax and Caspase 7 protein expression [5]: no change
- cleavage of PARP and Acinus protein ([5]; 48 hours): induce the cleavage of PARP protein and degradation of Acinus protein; also recorded: induced cleavage of PARP and Acinus protein
